The source made the active and inactive calls. The calls are words filed in the database; no cut-off is given here.
Legend:
[1] = Toxicity in New Zealand rabbit assessed as retinal damage in left eye pretreated with compound at 6 mg/m2, iv followed by diode laser irradiation at 650 nm measured after 24 hrs by fluorescein angiogram; type: organism-based, Oryctolagus cuniculus; settings: in vivo, 0.65 µM, dose 6 mg/m2, time 24 hrs
[2] = system: Oryctolagus cuniculus; test: Photodynamic activity in New Zealand rabbit assessed as outer blood-retinal barrier breakdown causing hyper-fluorescence in left eye pretreated with compound at 6 mg/m2, iv followed by diode laser irradiation at 650 nm measured after 24 hrs by fluorescein angiogram; type: functional, organism-based; settings: dose 6.0 mg/m2, time 24.0 hrs
[3] = system: Oryctolagus cuniculus; test: Photodynamic activity in New Zealand rabbit assessed as induction of choriocapillaris occlusion in left eye pretreated with compound at 6 mg/m2, iv followed by diode laser irradiation at 650 nm by indirect ophthalmoscopy; type: functional, organism-based
[4] = Induction of singlet oxygen generation in 9:1 acetonitrile/water mixture assessed as singlet oxygen quantum yield irradiated with 532 nanometer laser light; type: functional
[5] = Aggregation property of the compound in toluene at 130 degreeC under inert atmosphere; type: physicochemical
[6] = Photoactivity of the compound
[7] = Toxicity in New Zealand rabbit assessed as effect on hepatic profile pretreated with compound at 6 mg/m2, iv followed by diode laser irradiation at 650 nm measured after 24 hrs by fluorescein angiogram; type: organism-based, Oryctolagus cuniculus; settings: in vivo, 0.65 µM, dose 6 mg/m2, time 24 hrs
[8] = system: Oryctolagus cuniculus; test: Photodynamic activity in New Zealand rabbit assessed as blood flow obstruction causing hypo-fluorescent lesion in left eye pretreated with compound at 6 mg/m2, iv followed by diode laser irradiation at 650 nm measured after 24 hrs by fluorescein angiogram; type: functional, organism-based; settings: dose 6.0 mg/m2, time 24.0 hrs
[9] = Induction of singlet oxygen generation assessed as singlet oxygen quantum yield using liposome formulated compound; type: functional
[10] = system: Oryctolagus cuniculus; test: Photodynamic activity in New Zealand rabbit assessed as appearance of pallor area of one qaurter-diameter disc shaped in left eye pretreated with compound at 6 mg/m2, iv followed by diode laser irradiation at 650 nm measured after 24 hrs by retinography; type: functional, organism-based; settings: dose 6.0 mg/m2, time 24.0 hrs
[11] = system: Oryctolagus cuniculus; test: Photodynamic activity in New Zealand rabbit assessed as vascular occlusion causing hypo-fluorescent lesion in left eye pretreated with compound at 6 mg/m2, iv followed by diode laser irradiation at 650 nm measured after 24 hrs by fluorescein angiogram; type: functional, organism-based; settings: dose 6.0 mg/m2, time 24.0 hrs
[12] = Toxicity in New Zealand rabbit assessed as effect on renal profile pretreated with compound at 6 mg/m2, iv followed by diode laser irradiation at 650 nm measured after 24 hrs by fluorescein angiogram; type: organism-based, Oryctolagus cuniculus; settings: in vivo, 0.65 µM, dose 6 mg/m2, time 24 hrs

Structure (SMILES) | Activity [1] | Activity [2] | Activity [3] | Activity [4] | Activity [5] | Activity [6] | Activity [7] | Activity [8] | Activity [9] | Activity [10] | Activity [11] | Activity [12]
C=CC1=C(C)c2cc3[nH]c(cc4nc(cc5[nH]c(cc1n2)c(C)c5CCC(=O)OC)C(CCC(=O)OC)=C4C)[C@@]1(C)C3=CCC2C(=O)N(c3ccc([N+](=O)[O-])cc3)C(=O)C21 (some centres undefined) | Non-Toxic | Active | Active | 0.6 | Not Active | Active | Non-Toxic | Active | 0.5 | Active | Active | Non-Toxic
C=Cc1c(C)c2cc3nc(cc4[nH]c(cc5nc(cc1[nH]2)[C@@]1(C)C5=CC[C@H]2C(=O)N(c5ccc([N+](=O)[O-])cc5)C(=O)[C@H]21)c(C)c4CCC(=O)OC)C(CCC(=O)OC)=C3C | Non-Toxic | Active | Active | 0.6 | Not Active | Active | Non-Toxic | Active | 0.5 | Active | Active | Non-Toxic

— ChEMBL document CHEMBL4673211, “A new Chlorin formulation promotes efficient photodynamic action in choriocapillaris of rabbit's eyes” (Bioorg Med Chem Lett, 2018)
